The record followed here is PubChem BioAssay AID248 (DTP/NCI, 2004).

This test relates to L1210 leukemia ip in BDF1 mice, survival T/C. As to the kind of experiment: NCI In Vivo Anticancer Drug Screen. Data for tumor model L1210 Leukemia (intraperitoneal) in B6D2F1 (BDF1) mice. The note with it: endpoint: mean survival time, higher = longer survival. The method in brief:
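Ratio derived from survival: compound-dosed mice over vehicle-dosed mice, all bearing a transplantable tumor.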

Setting [1] is: dose: 100.0 mg/kg/injection, schedule: Q04DX003 (ip), vehicle: Klucel (hydroxypropylcellulose) (HPC).
Where [2] appears, read: dose: 200.0 mg/kg/injection, schedule: Q04DX003 (ip), vehicle: Klucel (hydroxypropylcellulose) (HPC).
Setting [3] is: dose: 400.0 mg/kg/injection, schedule: Q04DX003 (ip), vehicle: Klucel (hydroxypropylcellulose) (HPC).
The mark [4] stands for this setting: dose: 100.0 mg/kg/injection, schedule: Q01DX009 (ip), vehicle: Klucel (hydroxypropylcellulose) (HPC).
[5] abbreviates: dose: 25.0 mg/kg/injection, schedule: Q04DX003 (ip), vehicle: saline with Tween-80.
Setting [6] is: dose: 100.0 mg/kg/injection, schedule: Q04DX003 (ip), vehicle: saline.

Where “and” joins values, the source holds several entries; their conditions need not be identical. Equal values may be shown once. Toxic doses and inconclusive results are not listed.

`CC(=O)Nc1cc2[nH]cnc2c(Br)n1`: the T/C is 100 % of control (dose: 25.0 mg/kg/injection, schedule: Q01DX005 (ip), vehicle: saline); 105 % of control (dose: 50.0 mg/kg/injection, schedule: Q01DX005 (ip), vehicle: saline); 110 % of control (dose: 100.0 mg/kg/injection, schedule: Q01DX005 (ip), vehicle: saline).

Turning to `COc1cc(/C=N/N2CCN(/N=C/c3cc(OC)c(OC)c(OC)c3)CC2)cc(OC)c1OC`, the T/C is, setting by setting: under setting [1], 103 % of control; under setting [2], 101 % of control; under setting [3], 103 % of control.

For `C=CCC1(C(=C)C)C(=O)NC(=S)NC1=O`, the T/C (dose: 75.0 mg/kg/injection, schedule: Q01DX001 (ip), vehicle: carboxymethylcellulose (CMC)) was 95 % of control; the T/C (dose: 75.0 mg/kg/injection, schedule: Q01DX001 (ip), vehicle: saline) was 91 % of control; the T/C (dose: 150.0 mg/kg/injection, schedule: Q01DX001 (ip), vehicle: carboxymethylcellulose (CMC)) was 105 % of control; the T/C (dose: 150.0 mg/kg/injection, schedule: Q01DX001 (ip), vehicle: saline) was 102 % of control.

In the case of `COC(=O)/C=C1/Nc2cc(Cl)c(OC)cc2C(=O)NC1=O`, the T/C by setting is: (dose: 75.0 mg/kg/injection, schedule: Q04DX003 (ip), vehicle: other) 91 % of control; (dose: 150.0 mg/kg/injection, schedule: Q04DX003 (ip), vehicle: other) 91 % of control.

Regarding `O=C(CCCCCCCCC(=O)OCc1ccccc1)OCc1ccccc1`, the T/C runs as follows: (dose: 100.0 mg/kg/injection, schedule: Q04DX002 (ip), vehicle: saline) 96 % of control; (dose: 200.0 mg/kg/injection, schedule: Q04DX002 (ip), vehicle: saline) 88 % of control; (dose: 400.0 mg/kg/injection, schedule: Q04DX002 (ip), vehicle: saline) 100 % of control.

In the case of `N#Cc1cc2c(N)[nH]nc2nc1N`, the T/C by setting is: (dose: 25.0 mg/kg/injection, schedule: Q01DX009 (ip), vehicle: Klucel (hydroxypropylcellulose) (HPC)) 89 % of control; (dose: 50.0 mg/kg/injection, schedule: Q01DX009 (ip), vehicle: Klucel (hydroxypropylcellulose) (HPC)) 93 % of control; under setting [4], 86 % of control and 90 % of control; under setting [1], 98 % of control; under setting [2], 95 % of control; under setting [3], 101 % of control.

Regarding `CN(C)c1ccc(/C=C/c2cc[n+](C)cc2)cc1`, the T/C runs as follows: (dose: 8.0 mg/kg/injection, schedule: Q04DX003 (ip), vehicle: saline with Tween-80) 100 % of control; (dose: 16.0 mg/kg/injection, schedule: Q04DX003 (ip), vehicle: saline with Tween-80) 95 % of control.

As to `CCC(C)C(NC(C)=O)C(=O)O` (centres undefined), the T/C runs as follows: (dose: 100.0 mg/kg/injection, schedule: Q04DX002 (ip), vehicle: saline with Tween-80) 102 % of control; under setting [1], 88 % of control; (dose: 200.0 mg/kg/injection, schedule: Q04DX002 (ip), vehicle: saline with Tween-80) 94 % of control; under setting [2], 91 % of control; (dose: 400.0 mg/kg/injection, schedule: Q04DX002 (ip), vehicle: saline with Tween-80) 102 % of control; under setting [3], 89 % of control.

With `O=C(Nc1ccccc1C(F)(F)F)OCCOc1ccccc1Cl`, the T/C was 92 % of control under setting [1], 92 % of control under setting [2] and 92 % of control under setting [3].

Take `CC1CCN(C(=O)Nc2ccc(Cl)cc2[N+](=O)[O-])CC1`: the T/C is, setting by setting: under setting [4], 92 % of control; (dose: 200.0 mg/kg/injection, schedule: Q01DX009 (ip), vehicle: Klucel (hydroxypropylcellulose) (HPC)) 97 % of control; (dose: 400.0 mg/kg/injection, schedule: Q01DX009 (ip), vehicle: Klucel (hydroxypropylcellulose) (HPC)) 91 % of control.

As to `CCCCC(=O)N(c1ccc(Nc2c3ccccc3nc3cc([N+](=O)[O-])ccc23)cc1)S(C)(=O)=O`, the T/C reads like this: (dose: 3.18 mg/kg/injection, schedule: Q01DX009 (sc), vehicle: saline) 119 % of control; (dose: 6.25 mg/kg/injection, schedule: Q01DX009 (ip), vehicle: saline with Tween-80) 160 % of control; (dose: 16.5 mg/kg/injection, schedule: Q04DX003 (ip), vehicle: saline with Tween-80) 150 % of control; (dose: 25.0 mg/kg/injection, schedule: Q01DX009 (ip), vehicle: saline with Tween-80) 95 % of control; (dose: 25.0 mg/kg/injection, schedule: Q01DX009 (sc), vehicle: saline) 179 % of control; under setting [5], 153 % of control. Besides, the T/C was 168 % of control (dose: 44.0 mg/kg/injection, schedule: Q04DX003 (ip), vehicle: saline); 242 % of control (dose: 50.0 mg/kg/injection, schedule: Q04DX003 (ip), vehicle: saline with Tween-80); 92 % of control (dose: 67.0 mg/kg/injection, schedule: Q04DX003 (ip), vehicle: saline); 188 % of control (dose: 100.0 mg/kg/injection, schedule: Q04DX003 (ip), vehicle: saline with Tween-80); 103 % of control under setting [6]; 100 % of control (dose: 200.0 mg/kg/injection, schedule: Q04DX003 (ip), vehicle: saline with Tween-80).

Regarding `O=C1C=CC(=O)N1c1ccc(F)cc1`, under setting [5], the T/C is 108 % of control.

Regarding `CN(C)CCC(c1ccccc1)c1cc(Cl)ccn1` (centres undefined), the T/C was 95 % of control (dose: 6.25 mg/kg/injection, schedule: Q01DX009 (ip), vehicle: saline); 97 % of control (dose: 12.5 mg/kg/injection, schedule: Q01DX009 (ip), vehicle: saline); 106 % of control (dose: 12.5 mg/kg/injection, schedule: Q04DX003 (ip), vehicle: saline); 95 % of control (dose: 25.0 mg/kg/injection, schedule: Q01DX009 (ip), vehicle: saline); 103 % of control (dose: 25.0 mg/kg/injection, schedule: Q04DX003 (ip), vehicle: saline); 97 % of control (dose: 50.0 mg/kg/injection, schedule: Q01DX009 (ip), vehicle: saline). For the same compound, the T/C reads like this: (dose: 50.0 mg/kg/injection, schedule: Q04DX003 (ip), vehicle: saline) 103 % of control; (dose: 100.0 mg/kg/injection, schedule: Q01DX009 (ip), vehicle: saline) 100 % of control; under setting [6], 106 % of control.

For `C=CCSC(=S)N(C)C`, the T/C runs as follows: (dose: 25.0 mg/kg/injection, schedule: Q04DX002 (ip), vehicle: saline) 101 % of control; (dose: 50.0 mg/kg/injection, schedule: Q04DX002 (ip), vehicle: saline) 89 % of control.

Consider `CC(=O)NC1(C#N)c2ccccc2-c2ccccc21`, for which the T/C is, setting by setting: (dose: 50.0 mg/kg/injection, schedule: Q01DX001 (ip), vehicle: carboxymethylcellulose (CMC)) 104 % of control; (dose: 100.0 mg/kg/injection, schedule: Q01DX001 (ip), vehicle: carboxymethylcellulose (CMC)) 104 % of control; (dose: 200.0 mg/kg/injection, schedule: Q01DX001 (ip), vehicle: carboxymethylcellulose (CMC)) 102 % of control; (dose: 400.0 mg/kg/injection, schedule: Q01DX001 (ip), vehicle: carboxymethylcellulose (CMC)) 104 % of control.

With `CCCCNc1ncnc2c1cnn2C`, the T/C is 94 % of control and 105 % of control (dose: 31.25 mg/kg/injection, schedule: Q01DX010 (ip), vehicle: saline); 102 % of control (dose: 50.0 mg/kg/injection, schedule: Q01DX Z (ip), vehicle: saline); 100 % of control (dose: 62.5 mg/kg/injection, schedule: Q01DX010 (ip), vehicle: saline); 100 % of control (dose: 75.0 mg/kg/injection, schedule: Q01DX Z (ip), vehicle: saline); 111 % of control (dose: 100.0 mg/kg/injection, schedule: Q01DX Z (ip), vehicle: saline); 97 % of control and 113 % of control (dose: 125.0 mg/kg/injection, schedule: Q01DX010 (ip), vehicle: saline). In addition, for the setting “dose: 200.0 mg/kg/injection, schedule: Q01DX001 (ip), vehicle: saline”, the T/C was 98 % of control.

As to `O=C(Nc1ccc(C2=NCCN2)cc1)c1c(F)c(F)c(C(=O)Nc2ccc(C3=NCCN3)cc2)c(F)c1F`, the T/C is, setting by setting: (dose: 1.87 mg/kg/injection, schedule: Q01DX015 (ip), vehicle: methylcellulose (MC)) 103 % of control; (dose: 3.75 mg/kg/injection, schedule: Q01DX015 (ip), vehicle: methylcellulose (MC)) 101 % of control; (dose: 7.5 mg/kg/injection, schedule: Q01DX015 (ip), vehicle: methylcellulose (MC)) 121 % of control; (dose: 37.0 mg/kg/injection, schedule: Q01DX015 (ip), vehicle: methylcellulose (MC)) 95 % of control.
